This is an account of results in patent publication US8039644B2, “Hydrogenated benzo (C) thiophene derivatives as immunomodulators” (Actelion Pharmaceuticals Ltd., priority 2005, dated 2011).

recombinant human S1P1 receptor, sequence (P21453 whole entry): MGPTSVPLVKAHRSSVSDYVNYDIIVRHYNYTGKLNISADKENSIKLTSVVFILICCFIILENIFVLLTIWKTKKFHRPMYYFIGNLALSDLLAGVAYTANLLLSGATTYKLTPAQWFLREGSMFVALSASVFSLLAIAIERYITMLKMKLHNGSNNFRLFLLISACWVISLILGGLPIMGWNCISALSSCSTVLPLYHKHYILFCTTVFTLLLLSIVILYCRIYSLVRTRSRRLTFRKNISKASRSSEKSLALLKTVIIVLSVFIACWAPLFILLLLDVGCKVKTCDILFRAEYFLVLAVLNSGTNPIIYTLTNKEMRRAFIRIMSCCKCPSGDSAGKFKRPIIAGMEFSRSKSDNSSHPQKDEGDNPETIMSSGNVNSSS

The assay addresses recombinant human S1P1 receptor (Homo sapiens, UniProt P21453). Briefly: GTPγS assay to determine EC50 values. Format: biochemical. The settings on record: GTPγS binding, membrane preparations of CHO cells expressing recombinant human S1P1 receptor. The protocol: GTPγS Assay to Determine EC50 Values
GTPγS binding assays are performed in 96 well microtiter plates (Nunc, 442587) in a final volume of 200 μl, using membrane preparations of CHO cells expressing recombinant human S1P1 receptor. Assay conditions are 20 mM Hepes (Fluka, 54461), 100 mM NaCl (Fluka, 71378), 5 mM MgCl2 (Fluka, 63064), 0.1% BSA (Calbiochem, 126609), 1 μM GDP (Sigma, G-7127), 2.5% DMSO (Fluka, 41644), 50 pM ^35S-GTPγS (Amersham Biosciences, SJ1320). The pH is 7.4. Test compounds are dissolved and diluted in 100% DMSO and pre-incubated at room temperature for 30 min in 150 μl of the above assay buffer, in the absence of ^35S-GTPγS. After addition of 50 μl of ^35S-GTPγS, the assay is incubated for 1 h at rt. The assay is terminated by transfer of the reaction mixture to a Multiscreen plate (Millipore, MAHFC1H60) using a cell harvester from Packard Biosciences, and the plates are washed with ice-cold 10 mM Na2HPO4/NaH2PO4 (70%/30%), dried, sealed at the bottom and, after addition of 25 μl MicroScint20 (Packard Biosciences, order#6013621), sealed on the top. Membrane-bound ^35S-GTPγS is measured with a TopCount from Packard Biosciences.
EC50 is the concentration of agonist inducing 50% of the maximal specific ^35S-GTPγS binding. Specific binding is determined by subtracting non-specific binding from maximal binding. Maximal binding is the amount of cpm bound to the Multiscreen plate in the presence of 10 μM of S1P. Non-specific binding is the amount of binding in the absence of an agonist in the assay.
The EC50 values were determined according to the method described above.
A general note: GTPγS resists hydrolysis and so accumulates on activated G proteins.
One may read the EC50 as the midpoint of the concentration-response curve. `Cc1cc(CCC(=O)c2sc(C)c3c2CCC(C)(C)C3)cc(C)c1OC[C@@H](O)CO` [Example 27]: the EC50 was 2.4 nM.

Take `Cc1cc(CCC(=O)c2sc(C)c3c2CCC(C)(C)C3)cc(C)c1OCC(O)CNCCC(=O)O` (stereo not shown) [Example 41]: the EC50 turned out to be 2.8 nM.

For `COc1cc(CCC(=O)c2sc(C)c3c2CCC(C)(C)C3)cc(Cl)c1OCC(O)CNCCC(=O)O` (stereo not shown) [Example 62], the EC50 turned out to be 5.9 nM.

Take `CCc1sc(C(=O)CCc2cc(C)c(OCCO)c(C)c2)c2c1CC(C)(C)CC2` [Example 66]: the EC50 came out at 2.5 nM.

Take `CCc1sc(C(=O)CCc2cc(C)c(OCC(O)COC)c(C)c2)c2c1CC(C)(C)CC2` (stereo not shown) [Example 71]: the EC50 was 5.9 nM.

Take `CCc1sc(C(=O)CCc2cc(C)c(OCC(O)CNC(CO)CO)c(C)c2)c2c1CC(C)(C)CC2` (stereo not shown) [Example 77]: the EC50 worked out at 1.8 nM.

As to `CCc1sc(C(=O)CCc2cc(C)c(OCC(O)CNCCN)c(C)c2)c2c1CC(C)(C)CC2` (stereo not shown) [Example 79], the EC50 turned out to be 3.7 nM.

Consider `CCc1sc(C(=O)CCc2cc(C)c(OCC(O)CNCCC(=O)O)c(C)c2)c2c1CC(C)(C)CC2` (stereo not shown) [Example 80], for which the EC50 was 0.6 nM.

For `CCc1sc(C(=O)CCc2cc(C)c(OCCNC(C)C)c(C)c2)c2c1CC(C)(C)CC2` [Example 114], the EC50 amounted to 4.1 nM.

On to `Cc1cc(-c2noc(-c3scc4c3CCC(C)(C)C4)n2)cc(C)c1OCC(O)CNC(=O)CO` (stereo not shown) [Example 129], for which the EC50 came out at 3.8 nM.

With `COc1cc(CCC(=O)c2sc(C)c3c2CCC(C)(C)C3)cc(Cl)c1OCC(O)CNC(=O)CO` (stereo not shown) [Example 149], the EC50 was 5.1 nM.

As for `CCc1sc(C(=O)CCc2ccc(OCCO)cc2OC)c2c1CC(C)(C)CC2` [Example 210], the EC50 turned out to be 1.1 nM.

Take `CCc1sc(C(=O)CCc2ccc(OCCNS(C)(=O)=O)cc2OC)c2c1CC(C)(C)CC2` [Example 230]: the EC50 stood at 2.9 nM.

In the case of `CCc1sc(C(=O)CCc2cc(Cl)c(OCCNC(=O)CNC)c(OC)c2)c2c1CC(C)(C)CC2` [Example 247], the EC50 turned out to be 3.1 nM.

Regarding `CCc1sc(C(=O)CCc2ccc(OCCCNS(C)(=O)=O)cc2OC)c2c1CC(C)(C)CC2` [Example 269], the EC50 worked out at 1.8 nM.

Take `CCc1sc(C(=O)CCc2cc(C)c(OCC(O)CN)c(C)c2)c2c1CC(C)(C)CC2` (stereo not shown) [Example 271]: the EC50 was 1.7 nM.

Turning to `CCc1sc(C(=O)CCc2cc(C)c(OCC(O)CN3CC(C(=O)O)C3)c(C)c2)c2c1CC(C)(C)CC2` (stereo not shown) [Example 296], the EC50 amounted to 1 nM.

Take `CCc1sc(C(=O)CCc2cc(C)c(OCC(O)CNC(=O)CN)c(Cl)c2)c2c1CC(C)(C)CC2` (stereo not shown) [Example 312]: the EC50 came out at 0.8 nM.

Take `CCc1cc(CCC(=O)c2sc(CC)c3c2CCC(C)(C)C3)cc(C)c1CCCN` [Example 339, 3-[4-(3-Amino-propyl)-3-ethyl-5-methyl-phenyl]-1-(3-ethyl-5,5-dimethyl-4,5,6,7-tetrahydro-benzo[c]thiophen-1-yl)-propan-1-one]: the EC50 was determined as 1.8 nM.

Regarding `CCc1cc(CCC(=O)c2sc(CC)c3c2CCC(C)(C)C3)cc(C)c1CCCNC(=O)CCNC` [Example 351], the EC50 came out at 3.4 nM.

For the compound `CCc1sc(C(=O)CCc2ccc(S(=O)(=O)NCCN)cc2)c2c1CC(C)(C)CC2` [Example 356, N-(2-amino-ethyl)-4-[3-(3-ethyl-5,5-dimethyl-4,5,6,7-tetrahydro-benzo[c]thiophen-1-yl)-3-oxo-propyl]-benzenesulfonamide], the EC50 worked out at 8 nM.

With `CCc1sc(C(=O)CNc2ccccc2OC)c2c1CC(C)(C)CC2` [Example 378], the EC50 came to 6.1 nM.

As for `CCCc1sc(C(=O)CCc2cc(C)c(OC[C@H](O)CO)c(C)c2)c2c1CC(C)(C)CC2` [Example 414], the EC50 came to 4.2 nM.

Regarding `CCc1sc(C(=O)/C=C/c2cc(C)c(O)c(C)c2)c2c1CC(CC)(CC)CC2` [Example 423, 3-(4-Hydroxy-3,5-dimethyl-phenyl)-1-(3,5,5-triethyl-4,5,6,7-tetrahydro-benzo[c]thiophen-1-yl)-propenone], the EC50 was found to be 7.6 nM.

Consider `Cc1cc(-c2noc(-c3scc4c3CCC3(CC3)C4)n2)cc(C)c1OCC(O)CNC(=O)CO` (stereo not shown) [Example 457], for which the half-maximal effective concentration (EC50) is 6.2 nM.

For `CCc1cc(CCC(=O)c2sc(C(F)(F)F)c3c2CCC(C)(C)C3)cc(C)c1OCC(O)CNC(=O)CCO` (stereo not shown) [Example 489], the EC50 came out at 2.9 nM.

Turning to `Cc1cc(CCC(=O)c2sc(C(F)(F)F)c3c2CCC(C)(C)C3)cc(C)c1NCC(O)CO` (stereo not shown) [Example 501, 3-[4-(2,3-Dihydroxy-propylamino)-3,5-dimethyl-phenyl]-1-(5,5-dimethyl-3-trifluoromethyl-4,5,6,7-tetrahydro-benzo[c]thiophen-1-yl)-propan-1-one], the EC50 was 2.6 nM.

For `Cc1cc(C)cc(NCC(=O)c2sc(C(F)(F)F)c3c2CCC(C)(C)C3)c1` [Example 517], the EC50 stood at 9.7 nM.
